Experimental findings from US9988378B2, “1 H-pyrazole and 4,5-disubstituted thiazole inhibitors of SYK” (Hoffmann-La Roche Inc., priority 2012, dated 2018) are described below.

The target of assay [1] is T1, recombinant human SYK360-635 (Homo sapiens, UniProt P43405).
T1 construct: truncated construct of Spleen Tyrosine Kinase aa 360-635; made in house
Put plainly: SYK kinase assay, 33P ATP filtration (ENZYME_FILTRATION_IC50). The format is biochemical. The note with it: SYK aa 360-635 0.5 nM, ATP 20 μM, peptide 5 μM, 30° C. 15 min. The protocol: Determination of IC50 of Spleen Tyrosine Kinase (SYK) Inhibition:
SYK kinase assay is a standard kinase assay adapted to a 96 well plate format. This assay is performed in 96-well format for IC50 determination with […] which represented 10 half log dilutions and a 40 μL reaction volume. The assay measures the incorporation of radiolabeled ^33P ATP into an N-terminally biotinylated peptide substrate, derived from naturally occurring phosphoacceptor consensus sequence (Biotin-11aa DY*E). Phosphorylated products were detected upon termination of reactions with EDTA and the addition of Streptavidin coated beads. Representative results are in Table II above.
Assay plates: 96-well MultiScreen 0.65 um filter plates (Millipore Cat. No.: MADVNOB10) Streptavidin coated beads: Streptavidin Sepharose™, suspension 5.0 mL, in 50 mM EDTA/PBS diluted (1:100), (Amersham, Cat. No.: 17-5113-01)
Compounds: 10 mM in 100% dimethylsulfoxide (DMSO), final conc.: compound 0.003-100 uM in 10% DMSO
Enzyme: SYK RPA purified, truncated construct of Spleen Tyrosine Kinase aa 360-635, stock solution 1 mg/mL, MW: 31.2 KDa, final conc.:0.0005 μM.
Peptide 1: biotinylated peptide is derived from a naturally occurring phosphor-acceptor consensus sequence (Biotin-EPEGDYEEVLE), special order from QCB, stock solution 20 mM, final conc.: 5.0 μM.
ATP: Adenosine-5′-triphosphate 20 mM, (ROCHE Cat. No.: 93202720), final concentration: 20 μM
Buffer: HEPES: 2-Hydroxyethyl piperazine-2-ethanesulfonic acid (Sigma, Cat. No.: H-3375) final concentration: 50 mM HEPES pH7.5
BSA: Bovine Serum Albumin Fraction V, fatty acid free (Roche Diagnostics GmbH, Cat. No. 9100221) diluted to a final concentration of 0.1%
EDTA: EDTA stock solution 500 mM, (GIBCO, Cat. No.: 15575-038) final concentration: 0.1 mM
DTT: 1,4-Dithiothreitol (Roche Diagnostics GmbH, Cat. No.: 197777), final conc.: 1 mM MgCl2×6H2O: MERCK, Cat. No.: 105833.1000, final concentration: 10 mM
Assay Dilution Buffer (ADB): 50 mM HEPES, 0.1 mM EGTA, 0.1 mM Na Vanadate, 0.1 mM β-glycerophosphate, 10 mM MgCl2, 1 mM DTT, 0.1% BSA, pH 7.5
Bead wash buffer: 10 g/L PBS (Phosphate buffered saline) with 2M NaCl+1% phosphoric acid.
In 40 μL volume, 26 μL of ADB diluted, purified recombinant human SYK360-635 [0.5 nM] was mixed with 4 μL of 10× concentrations of the test compounds, [usually 100 μM-0.003 μM] in [10%] DMSO and the mixture was incubated for 10 min at RT.
The kinase reaction was initiated by the addition of 10 μL 4× substrate cocktail containing the DYE peptide substrate [0 or 5 μM], ATP [20 μM] and ^33PγATP [2 μCi/rxn]. After incubation at 30° C. for 15 min, the reaction was terminated by the transfer of 25 μL pf the reaction sample to a 96 well 0.65 μm Millipore MADVNOB membrane/plate containing 200 μL 5 mM EDTA and 20% Streptavidine coated beads in PBS.
The unbound radionucleotides were washed under vacuum with 3×250 μL 2M NaCl; 2×250 μL 2M NaCl+1% phosphoric acid; 1×250 μL H2O. After the last wash membrane/plates were transferred to an adaptor plate, heat dried for 15 min at 60° C., and 50 μL scintillation cocktail was added to each well and 4 h later the amount of radioactivity was counted in a top counter.
The percent inhibition was calculated based on the uninhibited enzyme rate: % Inhibition=100/(1+(IC50/Inhibitor conc)^n)
The IC50 was calculated using a non-linear curve fit with XLfit software (ID Business Solution Ltd., Guilford, Surrey, UK).

The subject of the next assay is RAMOS. Put plainly: RAMOS_V2_IC50. Type of assay: cell-based. The note with it: Homo sapiens.

A word on the IC50: it is the point on the concentration scale where inhibition reaches its midpoint.

On to `CC(C)C(=O)Nc1c[nH]nc1-c1nc2ccccc2s1` [Compound I-3, N-(3-Benzothiazol-2-yl-1H-pyrazol-4-yl)-isobutyramide], for which the IC50 stood at 2.08 µM in assay [1] and 5.41 µM in the assay with RAMOS. Turning to `CC(C)(CO)C(=O)Nc1c[nH]nc1-c1nc2ccccc2s1` [Compound I-28, N-(3-Benzothiazol-2-yl-1H-pyrazol-4-yl)-3-hydroxy-2,2-dimethyl-propionamide], the IC50 came out at 1.13 µM in assay [1] and 6.41 µM with RAMOS. As for `O=C(Nc1c[nH]nc1-c1nc2ccccc2s1)C1CCCC1` [Compound I-5, Cyclopenanecarboxylic acid (3-benzothiazol-2-yl-1H-pyrazol-4-yl)-amide], the figures for the IC50 (in assay [1]; with RAMOS) were 1.28 µM and 4.65 µM, respectively. Turning to `Cc1ccc2[nH]c(-c3ncsc3NC3CCCC3)nc2c1` [Compound I-43, N-cyclopentyl-4-(5-methyl-1H-benzo[d]imidazol-2-yl)thiazol-5-amine], the IC50 in assay [1] is 0.699 µM; in the assay on RAMOS, greater than 34.1 µM. `CC(=O)OCC(C)(C)C(=O)Nc1c[nH]nc1-c1nc2ccccc2s1` [Compound I-27, Acetic acid 2-(3-benzothiazol-2-yl-1H-pyrazol-4-ylcarbamoyl)-2-methyl-propyl ester]: the figures for the IC50 (in assay [1]; with RAMOS) were 4.64 µM and 15.5 µM, respectively. As to `CC(C)(C)C(=O)Nc1c[nH]nc1-c1nc2ccccc2s1` [Compound I-4, N-(3-Benzothiazol-2-yl-1H-pyrazol-4-yl)-2,2-dimethyl-propionamide], the results for the IC50 (in assay [1]; in the assay on RAMOS) were 0.621 µM and 3.83 µM, respectively. In the case of `Cc1cccc2[nH]c(-c3ncsc3Nc3cccnc3)nc12` [Compound I-40, 4-(4-methyl-1H-benzo[d]imidazol-2-yl)-N-(pyridin-3-yl)thiazol-5-amine], the IC50 in assay [1] was 0.487 µM; in the assay on RAMOS, 0.764 µM. `c1ccc(-c2ncc(-c3cc[nH]n3)s2)cc1` [Compound I-1, 2-Phenyl-5-(1H-pyrazol-3-yl)-thiazole]: the IC50 in assay [1] was 35.2 µM. `O=C(NC1CCOCC1)c1c[nH]nc1-c1nc2c(s1)CCCC2` [Compound I-23, N-(tetrahydro-2H-pyran-4-yl)-3-(4,5,6,7-tetrahydrobenzo[d]thiazol-2-yl)-1H-pyrazole-4-carboxamide]: the IC50 in assay [1] is 7.87 µM; with RAMOS, greater than 34.1 µM. With `O=C(Nc1c[nH]nc1-c1nc2ccccc2s1)C1CCOCC1` [Compound I-25, Tetrahydro-pyran-4-carboxylic acid (3-benzothiazol-2-yl-1H-pyrazol-4-yl)-amide], the IC50 in assay [1] was 4.61 µM; with RAMOS, 5.21 µM. On to `O=C(NC1CCOCC1)c1c[nH]nc1-c1nc2c(s1)CCC2` [Compound I-22, 3-(5,6-dihydro-4H-cyclopenta[d]thiazol-2-yl)-N-(tetrahydro-2H-pyran-4-yl)-1H-pyrazole-4-carboxamide], for which the values for the IC50 (in assay [1]; in the assay with RAMOS) were 1.99 µM and greater than 34.1 µM, respectively. The like results for `O=C(Nc1c[nH]nc1-c1nc2ccccc2s1)C1CC1` [Compound I-6, Cyclopropanecarboxylic acid (3-benzothiazol-2-yl-1H-pyrazol-4-yl)-amide] were, in that order, 2.76 µM and 12 µM. Consider `O=C(Nc1c[nH]nc1-c1nc2ccccc2s1)C1CCC1` [Compound I-26, Cyclobutanecarboxylic acid (3-benzothiazol-2-yl-1H-pyrazol-4-yl)-amide], for which, in assay [1], the 50% inhibitory concentration (IC50) was determined as 1.23 µM. Regarding `Cc1ccc2[nH]c(-c3ncsc3NCC(C)C)nc2c1` [Compound I-44, N-isobutyl-4-(5-methyl-1H-benzo[d]imidazol-2-yl)thiazol-5-amine], the IC50 was found to be 0.621 µM in assay [1] and 7.98 µM in the assay on RAMOS. In the case of `c1cncc(Nc2scnc2-c2nc3cnccc3[nH]2)c1` [Compound I-41], the IC50 in assay [1] is 5.44 µM; with RAMOS, greater than 31.2 µM.

With `COc1cccc(-c2n[nH]cc2C(=O)NC(C)(C)C)n1` [Compound I-11, N-tert-butyl-3-(6-methoxypyridin-2-yl)-1H-pyrazole-4-carboxamide], the results for the IC50 (in assay [1]; in the assay on RAMOS) were 7.95 µM and greater than 34.1 µM, respectively.
